Source: patent publication US10610522B2, “Methods for retreating irritable bowel syndrome (IBS)” (Salix Pharmaceuticals, Inc., priority 2014, dated 2020)
Several values for one entry are separate records, joined by “and”; a condition that tells them apart may be missing. Equal values may be shown once.

Columns and labels:
[1] = target: T1, cytochrome P450 1A2 (Homo sapiens, UniProt P05177); test: In vitro cytochrome P450 inhibition; type: biochemical; settings: 2 to 200 ng/mL
T1 sequence (P05177 1-516): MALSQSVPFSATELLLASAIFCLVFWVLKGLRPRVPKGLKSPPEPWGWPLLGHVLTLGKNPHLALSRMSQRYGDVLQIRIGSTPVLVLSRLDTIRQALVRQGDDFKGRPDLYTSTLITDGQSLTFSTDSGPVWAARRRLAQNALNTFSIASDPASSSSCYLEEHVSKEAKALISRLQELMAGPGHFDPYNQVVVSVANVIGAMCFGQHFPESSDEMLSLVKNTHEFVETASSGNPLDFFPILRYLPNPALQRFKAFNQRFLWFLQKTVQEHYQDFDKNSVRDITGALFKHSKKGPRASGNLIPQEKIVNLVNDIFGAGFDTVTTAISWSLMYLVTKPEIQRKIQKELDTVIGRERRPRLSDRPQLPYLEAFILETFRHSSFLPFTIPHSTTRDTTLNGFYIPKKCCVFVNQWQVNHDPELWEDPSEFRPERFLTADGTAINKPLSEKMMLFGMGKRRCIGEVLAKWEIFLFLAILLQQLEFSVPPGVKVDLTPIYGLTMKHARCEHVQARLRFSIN

[2] = test system: non-constipation IBS; test: Study 2 (TARGET 2): rifaximin 550 mg TID 14 days vs placebo in non-C IBS, 10-week follow-up; type: in vivo, human
Procedure: The primary efficacy endpoint of the study was the proportion of subjects who achieved adequate relief of IBS symptoms for at least 2 weeks during the first 4 weeks of the 10-week follow-up phase.
Two measures of efficacy were assessed.
Subjects were questioned on the relief of overall IBS symptoms and bloating. […] The analyses defined success as a “yes” response to questions regarding adequate relief. […]
All subpopulations in the study responded to therapy. Baseline severity was determined during screening for Abdominal Pain/Discomfort and Bloating, and the number, type (normal, hard, loose) and urgency of bowel movements. Duration of effect was assessed in a ten week follow-up period. […]
In TARGET 1 and 2, the primary endpoint was the proportion of patients who achieved adequate relief of IBS symptoms for at least 2 of 4 weeks during the month following 14 days of treatment. Adequate relief was defined as a response of “yes” to the following weekly Subject Global Assessment (SGA) question: “In regards to your IBS symptoms, compared to the way you felt before you started study medication, have you, in the past 7 days, had adequate relief of your IBS symptoms? [Yes/No]”
The key secondary endpoint was the proportion of patients who achieved adequate relief of IBS-related bloating for at least 2 of 4 weeks during the month following 2 weeks of treatment. Adequate relief of IBS-related bloating was defined as a response of “yes” to the following weekly (every 7 days) SGA question: “In regards to your IBS symptom of bloating, compared to the way you felt before you started study medication, have you, in the past 7 days, had adequate relief of your IBS symptom of bloating? […]

[3] = 550 mg TID, Population: ITT (N = 315)
[4] = 550 mg TID, Population: PP (N = 311)
[5] = 550 mg TID, Weeks 3-6, Population: PP (N = 311)
[6] = 550 mg TID, at least 2 of Weeks 3-6, N = 315, LOCF
[7] = Age Group: <65 (N = 281), 550 mg TID, Weeks 3-6
[8] = Age Group: >=65, 550 mg TID, Weeks 3-6
[9] = Gender: Female (N = 226), 550 mg TID, Weeks 3-6
[10] = Gender: Male (N = 85), 550 mg TID, Weeks 3-6
[11] = IBS Subtype: Alternating-predominant, 550 mg TID, Weeks 3-6
[12] = IBS Subtype: Diarrhoea-predominant, 550 mg TID, Weeks 3-6
[13] = Race: Non-White (N = 31), 550 mg TID, Weeks 3-6
[14] = Race: White (N = 280), 550 mg TID, Weeks 3-6
[15] = Study 2, at least 2 weeks during PEP
[16] = TARGET 2, month following two weeks of treatment, 550 mg TID, N = 315

With `CO[C@H]1/C=C/O[C@@]2(C)Oc3c(C)c(O)c4c(O)c(c5c(nc6cc(C)ccn65)c4c3C2=O)NC(=O)/C(C)=C\C=C\[C@H](C)[C@H](O)[C@@H](C)[C@@H](O)[C@@H](C)[C@H](OC(C)=O)[C@@H]1C` [Rifaximin, (2S,16Z,18E,20S,21S,22R,23R,24R,25S,26S,27S,28E)-5,6,21,23,25 Pentahydroxy-27-methoxy-2,4,11,16,20,22,24,26-octamethyl-2,7-(epoxypentadeca-(1,11,13)trienimino) benzofuro (4,5-e) pyrido(1,2-a) benzimidazole-1,15(2H)-dione,25-acetate] the “Inhibition of cytochrome P450 1A2” value [1] was “does not inhibit”, the “Subjects with skin or subcutaneous tissue disorders” value ([2]; 550 mg TID) was 1.3% and the “Adequate relief of IBS symptom of bloating based on daily measures, Failure” value [2, 3] was 182 (57.8%) N (%). For the same compound, the “Adequate relief of IBS symptom of bloating based on daily measures, Success” value [2, 3] was 133 (42.2%) N (%), the “Adequate relief of IBS symptoms based on daily measures, Failure” value [2, 3] was 200 (63.5%) N (%) and the “Adequate relief of IBS symptoms based on daily measures, Success” value [2, 3] was 115 (36.5%) N (%). The “Adequate relief of IBS symptom of bloating based on daily measures, Failure” value [2, 4] was 180 (57.9%) N (%), the “Adequate relief of IBS symptom of bloating based on daily measures, Success” value [2, 4] was 131 (42.1%) N (%) and the “Adequate relief of IBS symptoms based on daily measures, Failure” value [2, 4] was 196 (63.0%) N (%). For the same compound, the “Adequate relief of IBS symptoms based on daily measures, Success” value [2, 4] was 115 (37.0%) N (%), the “Adequate relief of IBS symptom of bloating (weekly SGA), Failure” value [2, 5] was 187 (60.1%) N (%) and the “Adequate relief of IBS symptom of bloating (weekly SGA), Success” value [2, 5] was 124 (39.9%) N (%). For the same compound, the “Adequate relief of IBS symptoms (weekly SGA), Failure” value [2, 5] was 187 (60.1%) N (%), the “Adequate relief of IBS symptoms (weekly SGA), Success” value [2, 5] was 124 (39.9%) N (%) and the “Adequate relief of IBS symptom of bloating (weekly SGA), Failure” value [2, 6] was 190 (60.3%) n (%). The “Adequate relief of IBS symptom of bloating (weekly SGA), Success” value [2, 6] was 125 (39.7%) n (%), the “Adequate relief of IBS symptoms (weekly SGA), Failure” value [2, 6] was 190 (60.3%) n (%) and the “Adequate relief of IBS symptoms (weekly SGA), Success” value [2, 6] was 125 (39.7%) n (%). For the same compound, the “Subjects discontinued study early for Adverse Event/Serious Adverse Event” value ([2]; 550 mg TID, randomized subjects (316)) was 0 n (%), the “Adequate relief of IBS symptom of bloating (weekly SGA), Failure” value [2, 7] was 171 (60.9%) N (%) and the “Adequate relief of IBS symptom of bloating (weekly SGA), Success” value [2, 7] was 110 (39.1%) N (%). For the same compound, the “Adequate relief of IBS symptoms (weekly SGA), Failure” value [2, 7] was 171 (60.9%) N (%), the “Adequate relief of IBS symptoms (weekly SGA), Success” value [2, 7] was 110 (39.1%) N (%) and the “Adequate relief of IBS symptom of bloating (weekly SGA), Failure” value [2, 8] was 16 (53.3%) N (%). For the same compound, the “Adequate relief of IBS symptom of bloating (weekly SGA), Success” value [2, 8] was 14 (46.7%) N (%), the “Adequate relief of IBS symptoms (weekly SGA), Failure” value [2, 8] was 16 (53.3%) N (%) and the “Adequate relief of IBS symptoms (weekly SGA), Success” value [2, 8] was 14 (46.7%) N (%). For the same compound, the “Adequate relief of IBS symptom of bloating (weekly SGA), Failure” value [2, 9] was 128 (56.6%) N (%), the “Adequate relief of IBS symptom of bloating (weekly SGA), Success” value [2, 9] was 98 (43.4%) N (%) and the “Adequate relief of IBS symptoms (weekly SGA), Failure” value [2, 9] was 130 (57.5%) N (%). For the same compound, the “Adequate relief of IBS symptoms (weekly SGA), Success” value [2, 9] was 96 (42.5%) N (%), the “Adequate relief of IBS symptom of bloating (weekly SGA), Failure” value [2, 10] was 59 (69.4%) N (%) and the “Adequate relief of IBS symptom of bloating (weekly SGA), Success” value [2, 10] was 26 (30.6%) N (%). The “Adequate relief of IBS symptoms (weekly SGA), Failure” value [2, 10] was 57 (67.1%) N (%), the “Adequate relief of IBS symptoms (weekly SGA), Success” value [2, 10] was 28 (32.9%) N (%) and the “Adequate relief of IBS symptom of bloating (weekly SGA), Failure” value [2, 11] was 19 (55.9%) N (%). The “Adequate relief of IBS symptom of bloating (weekly SGA), Success” value [2, 11] was 15 (44.1%) N (%), the “Adequate relief of IBS symptoms (weekly SGA), Failure” value [2, 11] was 21 (61.8%) N (%) and the “Adequate relief of IBS symptoms (weekly SGA), Success” value [2, 11] was 13 (38.2%) N (%). For the same compound, the “Adequate relief of IBS symptom of bloating (weekly SGA), Failure” value [2, 12] was 168 (60.6%) N (%), the “Adequate relief of IBS symptom of bloating (weekly SGA), Success” value [2, 12] was 109 (39.4%) N (%) and the “Adequate relief of IBS symptoms (weekly SGA), Failure” value [2, 12] was 166 (59.9%) N (%). The “Adequate relief of IBS symptoms (weekly SGA), Success” value [2, 12] was 111 (40.1%) N (%), the “Adequate relief of IBS symptom of bloating (weekly SGA), Failure” value [2, 13] was 17 (54.8%) N(%) and the “Adequate relief of IBS symptom of bloating (weekly SGA), Success” value [2, 13] was 14 (45.2%) N(%). The “Adequate relief of IBS symptoms (weekly SGA), Failure” value [2, 13] was 16 (51.6%) N(%), the “Adequate relief of IBS symptoms (weekly SGA), Success” value [2, 13] was 15 (48.4%) N(%) and the “Adequate relief of IBS symptom of bloating (weekly SGA), Failure” value [2, 14] was 170 (60.7%) N (%). For the same compound, the “Adequate relief of IBS symptom of bloating (weekly SGA), Success” value [2, 14] was 110 (39.3%) N (%), the “Adequate relief of IBS symptoms (weekly SGA), Failure” value [2, 14] was 171 (61.1%) N (%) and the “Adequate relief of IBS symptoms (weekly SGA), Success” value [2, 14] was 109 (38.9%) N (%). The “IBS symptom of bloating: adequate relief at least 2 out of 4 weeks during weeks 3 through 6 (weekly question)” value ([2]; Study 2 / TARGET 2) was 41%, the “Global IBS symptoms: adequate relief at least 2 out of 4 weeks during weeks 3 through 6 (weekly question)” value ([2]; Study 2 / TARGET 2, 550 mg TID 14 d) was 41% and 32% vs 41% and the “Responders: abdominal pain reduction of 1 point in weekly mean” value [2, 15] was 52%. For the same compound, the “Responders: abdominal pain reduction of 2 point in median” value [2, 15] was 41%, the “Responders: abdominal pain reduction of 3 point in mean” value [2, 15] was 6% vs 7% and the “Responders: abdominal pain reduction of 3 point in median” value [2, 15] was 21%. For the same compound, the “Responders: daily abdominal pain < 2 for at least 50% of days in a week” value [2, 15] was 39%, the “Responders: overall reduction of mean weekly abdominal pain by >= 25%” value [2, 15] was 58% and the “Responders: overall reduction of mean weekly abdominal pain by >= 50%” value [2, 15] was 35%. For the same compound, the “Responders: overall reduction of mean weekly abdominal pain by >= 75%” value [2, 15] was 14%, the “Responders: overall reduction of median weekly abdominal pain by >= 25%” value [2, 15] was 62% and the “Responders: overall reduction of median weekly abdominal pain by >= 50%” value [2, 15] was 44%. The “Abdominal Pain Responders: %” value [2, 16] was 52%, the “Abdominal Pain Responders: n” value [2, 16] was 165 and the “Abdominal Pain and Stool Consistency Responders: %” value [2, 16] was 47%. For the same compound, the “Abdominal Pain and Stool Consistency Responders: n” value [2, 16] was 147, the “Adequate Relief of IBS Symptoms: %” value [2, 16] was 41% and the “Adequate Relief of IBS Symptoms: n” value [2, 16] was 128. The “Adequate Relief of IBS-Related Bloating: %” value [2, 16] was 41%, the “Adequate Relief of IBS-Related Bloating: n” value [2, 16] was 129 and the “Stool Consistency Responders: %” value [2, 16] was 74%. For the same compound, the “Stool Consistency Responders: n” value [2, 16] was 233, the “Monthly responders for abdominal pain (≥30% decrease) and stool consistency (score <4)” value ([2]; TARGET 2, ≥2 weeks in month following 2 weeks of treatment) was 47% and the “% with decrease in stool frequency (SF)” value ([2]; Week 1, 550 mg TID) was 14.4%. For the same compound, the “% with decrease in stool frequency (SF)” value ([2]; Week 2, 550 mg TID) was 20.6%, the “% with decrease in stool frequency (SF)” value ([2]; Week 3, 550 mg TID) was 22.2% and the “% with decrease in stool frequency (SF)” value ([2]; Week 4, 550 mg TID) was 21.6%. The “% with decrease in stool frequency (SF)” value ([2]; Week 5, 550 mg TID) was 25.7%, the “% with decrease in stool frequency (SF)” value ([2]; Week 6, 550 mg TID) was 22.9% and the “% with decrease in stool frequency (SF)” value ([2]; Week 7, 550 mg TID) was 23.8%. The “% with decrease in stool frequency (SF)” value ([2]; Week 8, 550 mg TID) was 24.4%, the “% with decrease in stool frequency (SF)” value ([2]; Week 9, 550 mg TID) was 25.4% and the “% with decrease in stool frequency (SF)” value ([2]; Week 10, 550 mg TID) was 26.7%. For the same compound, the “% with decrease in stool frequency (SF)” value ([2]; Week 11, 550 mg TID) was 25.4% and the “% with decrease in stool frequency (SF)” value ([2]; Week 12, 550 mg TID) was 27.0%.
